Test results: patent US8697742B2, “BCRP/ABCG2 inhibitor” (Kabushiki Kaisha Yakult Honsha, priority 2005, dated 2014)
Values after ≈ are worked out from the molar mass of the structure shown. Counter-ions that a name gives are not always drawn.

Tests used:
K562/MDR cells = test: Effect on paclitaxel (multidrug) resistance of human MDR1 gene-transduced K562 cells; assay type: cell-based; conditions: concentration for 50% reduction of relative paclitaxel resistance value, K562/MDR vs K562, 72 hours; for EC50: Homo sapiens, read-out: Effect of overcoming resistance EC50
Description: After completion of culturing, the number of viable cells was counted by use of TetraColor ONE according to the manufacture's instruction manual.

A549/SN-38-4 cells = test: Effect of overcoming SN-38 resistance of BCRP-expressing A549/SN-38-4 cells; assay type: cell-based, human; conditions: concentration for 50% reduction of relative SN-38 resistance value (IC50 A549/SN-38-4 / IC50 A549), 48 hours culture with SN-38; for EC50: Homo sapiens, A549, 48 h, read-out: Effect of overcoming resistance EC50
Protocol: The human lung cancer A549 cells or the A549/SN-38-4 cells were suspended in a Ham's F-12 medium containing 10% FBS, 100 U/mL of penicillin, and 100 μg/mL of streptomycin (10% FBS/Ham's F-12), and the resultant suspension was inoculated into a 96-well microplate (2×10^3 cells/50 μL/well), followed by culturing at 5% CO2 and 37° C. overnight. […] After completion of culturing, the number of viable cells was counted by use of a viable cell counting reagent [TetraColor ONE (trademark), product of Seikagaku Corporation] according to the attached instruction manual. […] The greater the relative resistance value, the higher the level of acquired resistance.

EC50 (K562/MDR cells) [µg/mL] | EC50 (A549/SN-38-4 cells) [µg/mL] | Molecule | also measured
> 5 | 0.013 (≈ 0.0382 µM) | COc1ccc(/C(C#N)=C/c2ccc(N3CCOCC3)o2)cc1OC [Compound 25, (Z)-2-(3,4-dimethoxy-phenyl)-3-(5-morpholin-4-yl-furan-2-yl)-acrylonitrile] | –
> 5 | – | COc1ccc(/C(C#N)=C/c2ccc(N3CCN(C)CC3)o2)cc1OC [Compound 27, (Z)-2-(3,4-dimethoxy-phenyl)-3-[5-(4-methyl-piperazin-1-yl)-furan-2-yl]-acrylonitrile] | Effect of overcoming resistance EC50 (A549/SN-38-4 cells): 200 ng/mL
> 5 | – | COc1ccc(/C(C#N)=C/c2ccc(N3CCC(OP(=O)([O-])[O-])CC3)o2)cc1OC.[Na+].[Na+] [Compound 53, mono-(1-{5-[(Z)-2-cyano-2-(3,4-dimethoxy-phenyl)-vinyl]-furan-2-yl}-piperidin-4-yl)phosphate sodium salt] | –
> 5 | 0.014 (≈ 0.0466 µM) | COc1ccc(/C(C#N)=C/c2ccc([N+](=O)[O-])o2)cc1OC [Compound 19, (Z)-2-(3,4-dimethoxy-phenyl)-3-(5-nitro-furan-2-yl)-acrylonitrile] | –
> 5 | – | COc1ccc(/C(C#N)=C/c2ccc(N3CCC(OP(=O)([O-])[O-])CC3)s2)cc1OC.[Na+].[Na+] [Compound 17, mono-(1-{5-[(Z)-2-cyano-2-(3,4-dimethoxy-phenyl)-vinyl]-thiophen-2-yl}-piperidin-4-yl)phosphate sodium salt] | –
> 5 | 0.032 (≈ 0.112 µM) | COc1ccc(/C(C#N)=C/c2ccc(N)s2)cc1OC [Compound 3, (Z)-3-(5-amino-thiophen-2-yl)-2-(3,4-dimethoxy-phenyl)-acrylonitrile] | –
– | 0.034 (≈ 0.1 µM) | COc1ccc(/C(C#N)=C/c2ccc(N3CCCCC3)o2)cc1OC [Compound 24, (Z)-2-(3,4-dimethoxy-phenyl)-3-(5-piperidin-1-yl-furan-2-yl)-acrylonitrile] | –

Second part, the molecule before the results:

Molecule | EC50 (K562/MDR cells) [µg/mL] | EC50 (A549/SN-38-4 cells) [µg/mL] | also measured
COc1ccc(/C=C(\C#N)c2cccs2)cc1OC [Compound 55, (E)-3-(3,4-dimethoxy-phenyl)-2-thiophen-2-yl-acrylonitrile] | > 5 | – | –
COc1ccc(/C=C(\C#N)c2ccsc2)cc1OC [Compound 56, (Z)-3-(3,4-dimethoxy-phenyl)-2-thiophen-3-yl-acrylonitrile] | > 5 | 0.037 (≈ 0.136 µM) | –
COc1ccc(/C(C#N)=C/c2ccc(CO)o2)cc1OC [Compound 20, (Z)-2-(3,4-dimethoxy-phenyl)-3-(5-hydroxy-methyl-furan-2-yl)-acrylonitrile] | – | – | Effect of overcoming resistance EC50 (A549/SN-38-4 cells): 490 ng/mL; Effect of overcoming resistance EC50 (K562/MDR cells): >5000 ng/mL
(Z)-2-(3,4-dimethoxy-phenyl)-3-pyridin-4-yl-acrylonitrile N-oxide [Compound 33] | – | – | Effect of overcoming resistance EC50 (A549/SN-38-4 cells): 520 ng/mL; Effect of overcoming resistance EC50 (K562/MDR cells): >5000 ng/mL
COc1ccc(/C(C#N)=C/c2cccnc2)cc1OC [Compound 34, (Z)-2-(3,4-dimethoxy-phenyl)-3-pyridin-3-yl-acrylonitrile] | > 5 | – | Effect of overcoming resistance EC50 (A549/SN-38-4 cells): 58 ng/mL
COc1ccc(/C=C(\C#N)c2ccccn2)cc1OC [Compound 45, (Z)-3-(3,4-dimethoxy-phenyl)-2-pyridin-2-yl-acrylonitrile] | > 5 | 0.05 (≈ 0.188 µM) | –
COc1ccc(/C(C#N)=C/c2ccc(N3CCC(OC(=O)CCC(=O)O)CC3)s2)cc1OC [Compound 18, mono-(1-{5-[(Z)-2-cyano-2-(3,4-dimethoxy-phenyl)-vinyl]-thiophen-2-yl}-piperidin-4-yl)succinate] | – | – | Effect of overcoming resistance EC50 (K562/MDR cells): >5000 ng/mL
COc1ccc(/C(C#N)=C/c2ccc[nH]2)cc1OC.Cl [Compound 40, (Z)-2-(3,4-dimethoxy-phenyl)-3-(1H-pyrrol-2-yl)-acrylonitrile hydrochloride] | > 5 | 0.075 | –
COc1ccc(/C(C#N)=C/c2ccccn2)cc1OC [Compound 38, (Z)-2-(3,4-dimethoxy-phenyl)-3-pyridin-2-yl-acrylonitrile] | > 5 | 0.06 (≈ 0.225 µM) | –
COc1ccc(/C=C(\C#N)c2cccnc2)cc1OC [Compound 44, (Z)-3-(3,4-dimethoxy-phenyl)-2-pyridin-3-yl-acrylonitrile] | > 5 | 0.056 (≈ 0.21 µM) | –
COc1ccc(-c2cc(/C=C(\C#N)c3ccc(OC)c(OC)c3)no2)cc1 [Compound 77, (Z)-2-(3,4-dimethoxy-phenyl)-3-[5-(4-methoxy-phenyl)-isoxazol-3-yl]-acrylonitrile] | – | 0.11 (≈ 0.304 µM) | –
COc1ccc(/C(C#N)=C/c2cnc(SC)n2Cc2ccccc2)cc1OC [Compound 42, (Z)-3-(3-benzyl-2-methylsulfanyl-3H-imidazol-4-yl)-2-(3,4-dimethoxy-phenyl)-acrylonitrile] | > 5 | 0.22 (≈ 0.562 µM) | –
COc1ccc2nc(Cl)c(/C=C(\C#N)c3ccccn3)cc2c1 [Compound 79, (Z)-3-(2-chloro-6-methoxy-quinolin-3-yl)-2-pyridin-2-yl-acrylonitrile] | – | 0.006 (≈ 0.0186 µM) | –
COc1ccc(/C(C#N)=C/c2ccc(N3CCC(OP(=O)(O)O)CC3)o2)cc1OC [Compound 52, mono-(1-{5-[(Z)-2-cyano-2-(3,4-dimethoxy-phenyl)-vinyl]-furan-2-yl}-piperidin-4-yl)phosphate] | – | – | Effect of overcoming resistance EC50 (K562/MDR cells): >5000 ng/mL
N#C/C(=C\c1ccnc2ccccc12)c1cccnc1 [Compound 86, (Z)-2-pyridin-3-yl-3-quinolin-4-yl-acrylonitrile] | – | 0.12 (≈ 0.466 µM) | –
COc1ccc(/C(C#N)=C/c2ccc(N3CCN(CCO)CC3)s2)cc1OC.O=S(=O)(O)O [Compound 101, (Z)-2-(3,4-dimethoxy-phenyl)-3-{5-[4-(2-hydroxy-ethyl)-piperazin-1-yl]-thiophen-2-yl}-acrylonitrile sulfate] | – | 0.013 | –
COc1ccc(/C(C#N)=C/c2ccc(N3CCN(CCO)CC3)o2)cc1OC [Compound 50, (Z)-2-(3,4-dimethoxy-phenyl)-3-{5-[4-(2-hydroxy-ethyl)-piperazin-1-yl]-furan-2-yl}-acrylonitrile hydrochloride] | – | – | Effect of overcoming resistance EC50 (A549/SN-38-4 cells; hydrochloride): 110 ng/mL
CCN(CC)c1ccc(NC(=O)CCC(=O)OC2CCN(c3ccc(/C=C(\C#N)c4ccc(OC)c(OC)c4)s3)CC2)cc1 [Compound 99, 1-[5-[(Z)-2-cyano-2-(3,4-dimethoxy-phenyl)-vinyl]-thiophen-2-yl]-piperidin-4-yl N-(4-diethylamino-phenyl)-succinamate] | – | 0.063 (≈ 0.102 µM) | –
COc1ccc(/C(C#N)=C/c2cccnc2)cc1OC [Compound 36, (Z)-2-(3,4-dimethoxy-phenyl)-3-pyridin-3-yl-acrylonitrile hydrochloride] | – | – | Effect of overcoming resistance EC50 (A549/SN-38-4 cells; hydrochloride): 120 ng/mL
CCN(CC)CC(=O)OC1CCN(c2ccc(/C=C(\C#N)c3ccc(OC)c(OC)c3)s2)CC1.Cc1ccc(S(=O)(=O)O)cc1 [Compound 96, 1-[5-[(Z)-2-cyano-2-(3,4-dimethoxy-phenyl)-vinyl]-thiophen-2-yl]-piperidin-4-yl diethylamino-acetate p-toluenesulfonate] | – | 0.12 | –
COc1ccc(/C(C#N)=C/c2cn(C)c3ccccc23)cc1OC [Compound 68, (Z)-2-(3,4-dimethoxy-phenyl)-3-(1-methyl-1H-indol-3-yl)-acrylonitrile] | – | 0.011 (≈ 0.0346 µM) | –
COc1ccc(/C(C#N)=C/c2ccnc3ccccc23)cc1OC [Compound 65, (Z)-2-(3,4-dimethoxy-phenyl)-3-quinolin-4-yl-acrylonitrile] | – | 0.011 (≈ 0.0348 µM) | –
N#C/C(=C\c1ccnc2ccccc12)c1cccs1 [Compound 87, (E)-3-quinolin-4-yl-2-thiophen-2-yl-acrylonitrile] | – | 0.046 (≈ 0.175 µM) | –
COc1ccc(/C(C#N)=C/c2ccc3ccccc3n2)cc1OC [Compound 78, (Z)-2-(3,4-dimethoxy-phenyl)-3-quinolin-2-yl-acrylonitrile] | – | 0.077 (≈ 0.243 µM) | –
(E)-2-benzothiazol-1-yl-3-(3,4-dimethoxy-phenyl)-acrylonitrile [Compound 71] | – | – | Effect of overcoming resistance EC50 (A549/SN-38-4 cells): 13 ng/mL
COc1ccc(/C(C#N)=C/c2cc3ccccc3nc2Cl)cc1OC [Compound 70, (Z)-3-(2-chloro-quinolin-3-yl)-2-(3,4-dimethoxy-phenyl)-acrylonitrile] | – | 0.011 (≈ 0.0314 µM) | –
N#C/C(=C\c1ccnc2ccccc12)c1ccsc1 [Compound 88, (Z)-3-quinolin-4-yl-2-thiophen-3-yl-acrylonitrile] | – | 0.07 (≈ 0.267 µM) | –
COc1ccc(/C(C#N)=C/c2ccc(N3CCC(OC(=O)CCC(=O)O)CC3)o2)cc1OC [Compound 51, mono-(1-{5-[(Z)-2-cyano-2-(3,4-dimethoxy-phenyl)-vinyl]-furan-2-yl}-piperidin-4-yl)succinate] | – | – | Effect of overcoming resistance EC50 (A549/SN-38-4 cells): 510 ng/mL
COc1ccc(/C=C(\C#N)c2coc3ccccc23)cc1OC [Compound 72, (Z)-2-benzofuran-3-yl-3-(3,4-dimethoxy-phenyl)-acrylonitrile] | – | – | Effect of overcoming resistance EC50 (A549/SN-38-4 cells): 11 ng/mL
COc1ccc(/C(C#N)=C/c2ccc(N3CCC(OC(=O)CN(C)C)CC3)s2)cc1OC.Cc1ccc(S(=O)(=O)O)cc1 [Compound 62, 1-[5-[(Z)-2-cyano-2-(3,4-dimethoxy-phenyl)-vinyl]-thiophen-2-yl]-piperidin-4-yl dimethylamino-acetate p-toluenesulfonate] | – | 0.062 | –
